1 compound from US11464750B2, “Anticancer agent and use thereof” (priority 2017, dated 2022) can be followed below.

Assay type in all cases: cell-based, human
One test concerns TKG0210 cells. Briefly: Cell Death Detection ELISA, TKG0210. Particulars: 0.5 μM, 72 hours. As to the method:
The induction of apoptosis by 3EZ,20Ac-ingenol treatment was examined by detecting histone-binding DNA fragmentation in the cytoplasm using a Cell Death Detection ELISA kit (Roche Applied Science).
Specifically, BALL-1 cells, TKG0210 cells, and TKG0377 cells were inserted into tubes at 5×10^4 cells/well/200 μL, and incubated for 6, 12, 24, 48, and 72 hours in the presence of 3EZ,20Ac-ingenol at a final concentration of 0.5 μM. Subsequently, the respective cells were lysed in a lysis buffer. Subsequently, the supernatant of cell debris of the respective cells was collected and transferred to an ELISA plate, and an absorbance at a wavelength of 405 nm was measured to measure the induction of apoptosis.
On the technique in general: In an ELISA, binding on a coated surface is turned into a signal by an enzyme label.

The subject of a further test is caspase 3. Put plainly: Western blotting, activated caspase 3, JeKo-1 cells. The note with it: 0.5 μM, 48 hours after treatment. As to the method:
Specifically, JeKo-1 cells were cultured for 0 (control), 12, 24, and 48 hours in the presence of 0.5 μM of 3EZ,20Ac-ingenol. In addition. Panc-1 cells were cultured for 0 (control), 12, 24, and 48 hours in the presence of 3 μM of 3EZ,20Ac-ingenol. Subsequently, activation of caspase 3 in the respective cells was detected by Western blotting using an anti-activated-caspase antibody (R & D Systems). Furthermore, as a loading control, actin protein was detected using an anti-actin antibody (Sigma).
(In general: A western blot detects proteins with antibodies after separation by electrophoresis.)

Test [1] has as its system phosphorylated p53 (p-p53) protein. Put plainly: Western blotting, phosphorylated p53, Panc-1 cells. Particulars: 3 μM. As to the method:
Specifically, JeKo-1 cells were cultured for 0 (control), 12, 24, and 48 hours in the presence of 0.5 μM of 3EZ,20Ac-ingenol. In addition, Panc-1 cells were cultured for 0 (control), 12, 24, and 48 hours in the presence of 3 μM of 3EZ,20Ac-ingenol.
Subsequently, ATR protein, p53 protein, and phosphorylated p53 (hereinafter also referred to as “p-p53”) protein in the respective cells were respectively detected using an anti-ATR antibody (Cell Signaling Technology), an anti-p53 antibody (Santa Cruz), and an anti-p-p53 antibody (Cell Signaling Technology). Furthermore, as a loading control, actin protein was detected using an anti-actin antibody (Sigma).

Test [2] deals with phosphorylated Akt (Ser^473). Briefly: Western blotting, p-Akt (Ser473), TKG0377 cells. Particulars: 0.5 μM. As to the method:
The effect of 3EZ,20Ac-ingenol treatment on a PI3K/Akt signaling pathway was examined. Specifically, BALL-1 cells, TKG0210 cells, and TKG0377 cells were cultured for 48 hours in the presence of 3EZ,20Ac-ingenol at a final concentration of 0.5 μM, and by Western blotting using an anti-p-Akt (Ser^473) antibody (Cell Signaling Technology), phosphorylation of the 473th serine residue of an Akt protein in respective fractions of the entire cell, a nucleus, and a cytoplasm was analyzed. In addition, cells cultured in the absence of 3EZ,20Ac-ingenol were used as controls.
BALL-1 cells, TKG0210 cells, and TKG0377 cells were cultured for 24 and 48 hours in the presence of 3EZ,20Ac-ingenol at a final concentration of 0.5 μM, and abundances of p-Akt in the nuclear fraction and the cytoplasm fraction were analyzed by Western blotting. In addition, respective cells cultured in the absence of 3FZ,20Ac-ingenol were used as controls.

Test [3] has as its system p-PTEN (Ser^380/Thr^382/383). Put plainly: Western blotting, p-PTEN, BALL-1 cells. Particulars: 0.5 μM, 3 to 48 hours, entire cell fraction. As to the method: The effect of 3EZ,20Ac-ingenol treatment on PTEN, p-PTEN, and p-Akt of BALL-1 cells was examined. First, BALL-1 cells were cultured for 3, 6, 12, 24, and 48 hours in the presence of 3EZ,20Ac-ingenol at a final concentration of 0.5 μM, and by Western blotting using an anti-PTEN antibody (Santa Cruz), an anti-p-PTEN (Ser^380/Thr^382/383) antibody (Santa Cruz), and an anti-p-Akt (Ser^473) antibody (Cell Signaling Technology), abundances of PTEN, p-PTEN, and p-Akt in the entire cell fraction were analyzed. In addition, cells cultured in the absence of 3EZ,20Ac-ingenol were used as controls.

The test system of another test is cyclin D1. Briefly: Western blotting, cyclin D1, BALL-1 cells. The note with it: 0.5 μM. As to the method: Specifically, BALL-1 cells were cultured for 12, 24, and 48 hours in the presence of 3EZ,20Ac-ingenol at a final concentration of 0.5 μM, and abundances of cyclin D1 in the nuclear fraction and the cytoplasm fraction were analyzed by Western blotting. In addition, cells cultured in the absence of 3EZ,20Ac-ingenol were used as controls.
Whether transfer of cyclin D1 from the nucleus to the cytoplasm is ATR-dependent and PTEN-dependent was examined using siRNA against ATR and siRNA against PTEN. First, siRNA against ATR (“ON-TARGET Plus Human ATR (545) siRNA-SMARTpool,” GE Dharmacon), siRNA against PTEN (“ON-TARGET Plus Human PTEN (5728) siRNA-SMARTpool,” GE Dharmacon), and control siRNA (“ON-TARGET Plus Nontargeting pool,” GE Dharmacon) were respectively introduced into BALL-1 cells at a final concentration of 50 nM, and incubated for 48 hours.
Subsequently, a cell medium was replaced with a new medium containing 3EZ,20Ac-ingenol at a final concentration of 0.5 μM, and culturing was performed for 24 and 48 hours. Subsequently, abundances of cyclin D1 in the nuclear fraction and the cytoplasm fraction were analyzed by Western blotting using an anti-cyclin-D1 antibody (Santa Cruz).

The subject of another test is GSK-3β. Briefly: Western blotting, GSK-3β, Panc-1 cells. The note with it: 3 μM, entire cell, 12 hours. As to the method: Specifically, first, JeKo-1 cells were cultured for 0 (control), 12, 24, and 48 hours in the presence of 0.5 μM of 3EZ,20Ac-ingenol. In addition, Panc-1 cells were cultured for 0 (control), 12, 24, and 48 hours in the presence of 3 μM of 3EZ,20Ac-ingenol.
Subsequently, abundances of GSK-3β and p-GSK-3β in the respective cells were analyzed by Western blotting using an anti-GSK-3β antibody (Cell Signaling Technology) and an anti-p-GSK-3β (Ser^9) antibody (Cell Signaling Technology). Furthermore, as a loading control, actin protein was detected using an anti-actin antibody (Sigma).

Molecules are shown by their SMILES.

Consider `CCCCC/C=C\C=C\C(=O)O[C@H]1C(C)=C[C@]23C(=O)[C@@H](C=C(COC(C)=O)[C@@H](O)[C@]12O)[C@H]1[C@@H](C[C@H]3C)C1(C)C` [3EZ,20Ac-ingenol, 3-O-(2′E,4′Z-decadienoyl)-20-O-acetylingenol], for which the “amount of fragmented DNA (apoptosis)” value in the test with TKG0210 cells is listed as “almost no fragmented DNA was detected”. For the same compound, the “activation of caspase 3” value in the test with caspase 3 is given as “activation of caspase 3 was observed”. Moreover, the “phosphorylation of p53” value in test [1] (12 hours after treatment, entire cells) is recorded as “phosphorylation of p53 was observed”. The “amount of phosphorylated p53 protein” value in test [1] (nuclear fraction and cytoplasm fraction) is on record as “the amount of phosphorylated p53 protein increased”. Besides, the “abundance of p-Akt” value in test [2] (24 and 48 hours, cytoplasm fraction and nuclear fraction) is listed as “no decrease in abundance of p-Akt was observed”; in test [2] (48 hours, cytoplasm fraction), “remained almost unchanged”; in test [2] (48 hours, nuclear fraction) it was “increased”. For the same compound, the “abundance of p-PTEN” value in test [3] was “an abundance of p-PTEN increased”. For the same compound, the “abundance of cyclin D1” value in the test on cyclin D1 (cytoplasm fraction, 12 hours and 24 hours) is “increased”; in the test with cyclin D1 (cytoplasm fraction, after 48 hours), “decreased again”; in the test on cyclin D1 (nuclear fraction, 24 hours) it was “a decrease in abundance of cyclin D1 was observed”; in the test on cyclin D1 (siRNA against ATR introduced, cytoplasm fraction, 24 hours), “abundances of cyclin D1 in the cytoplasm fractions increased”; in the test with cyclin D1 (siRNA against ATR introduced, cytoplasm fraction, 48 hours), “abundances of cyclin D1 in the cytoplasm fractions decreased again”; in the test with cyclin D1 (siRNA against ATR introduced, nuclear fraction, 24 and 48 hours) it was “an abundance of cyclin D1 was large”. Further, the “abundance of cyclin D1” value in the test with cyclin D1 (siRNA against PTEN introduced, cytoplasm fraction, 24 hours) was “abundances of cyclin D1 in the cytoplasm fractions increased”; in the test with cyclin D1 (siRNA against PTEN introduced, cytoplasm fraction, 48 hours) it was “abundances of cyclin D1 in the cytoplasm fractions decreased again”; in the test on cyclin D1 (siRNA against PTEN introduced, nuclear fraction, 24 and 48 hours), “an abundance of cyclin D1 was large”. Also, the “GSK-3β (an active type)” value with GSK-3β is reported as “an increase in GSK-3β was observed”.
